# Data: US20260256826A1, “PREPARATION METHOD AND APPLICATION OF ZINC HYALURONATE” (BLOOMAGE BIOTECHNOLOGY CORPORATION LIMITED, priority 2022, published 2026)
# Tests used:
# [1] = Hydroxyl radical scavenging, salicylic acid method; settings: 0.5% solution
# From the text: The salicylic acid method was used to determine the hydroxyl radical scavenging ability of zinc hyaluronate samples. A certain amount of H2O2 and FeSO4 were mixed to produce hydroxyl radicals by Fenton reaction. Adding salicylic acid to the reaction system can capture hydroxyl radicals and produce 3-hydroxysalicylic acid and 5-hydroxysalicylic acid. Both products have strong absorption at 510 nm. The reaction equation is as follows: The addition of the sample will compete with salicylic acid for the reaction with OH, thereby reducing the production of 3-hydroxysalicylic acid and 5-hydroxysalicylic acid. The fixed reaction time method was used to measure the absorbance of the reaction solution at 510 nm and compare it with the blank solution to determine the scavenging effect of the analyte on hydroxyl free radicals. The scavenging rate is calculated as follows: In the formula, S is the scavenging rate, A0 is the absorbance value of the blank control, Ax is the absorbance value when the sample is added, and Ax0 is the absorbance value without adding the color developer.
# [2] = Superoxide anion scavenging, pyrogallol self-oxidation method; settings: 0.5% solution
# Description: The pyrogallol self-oxidation method was used. Under weakly alkaline conditions, pyrogallol can undergo self-oxidation reaction to generate superoxide anions and a colored intermediate product with a characteristic absorption peak at 320 nm. In the initial trial stage, the amount of intermediate product is linearly related to time. Since the self-oxidation rate depends on the concentration of superoxide anions, when a superoxide anion scavenger is added, it can react quickly with superoxide anions to inhibit the self-oxidation reaction, thereby preventing the accumulation of intermediates and weakening the light absorption of the solution at 320 nm. Therefore, the scavenging effect of the scavenger on superoxide anions can be evaluated by measuring the […] value. scavenging rate of superoxide anion free radical (%)=(A0-Ax)/A0×100%
smiles,measurement,setting,value
CC(=O)[O-].CC(=O)[O-].[Zn+2] [zinc acetate dihydrate],hydroxyl free radical scavenging ability (in words),[1],significantly lower than that of HA-Zn
same,superoxide anion free radical scavenging ability (in words),[2],significantly lower than that of HA-Zn
